Measurements taken from US9611267B2, “Substituted tricyclic compounds as FGFR inhibitors” (Incyte Corporation, priority 2012, dated 2017).
Like-named read-outs stand apart in the source and are kept apart here.

Assays:
Format in all cases: biochemical
FGFR1 = FGFR1 (Homo sapiens (Human), UniProt P11362); test: FGFR enzymatic assay (FRET peptide phosphorylation), FGFR1
Summary of the method: (§1)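 IC50 values were obtained from variable-slope sigmoidal dose-response fitting of a FRET read-out of peptide phosphorylation. The buffer, described for FGFR3, was 50 mM HEPES pH 7.5 with MgCl2, EGTA, Tween-20 and DTT.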

FGFR3 = FGFR3 (Homo sapiens (Human), UniProt P22607); test: FGFR enzymatic assay (FRET peptide phosphorylation), FGFR3; settings: FGFR3 enzyme (Millipore), ATP 140 μM
Chain of FGFR3 (P22607 23-806): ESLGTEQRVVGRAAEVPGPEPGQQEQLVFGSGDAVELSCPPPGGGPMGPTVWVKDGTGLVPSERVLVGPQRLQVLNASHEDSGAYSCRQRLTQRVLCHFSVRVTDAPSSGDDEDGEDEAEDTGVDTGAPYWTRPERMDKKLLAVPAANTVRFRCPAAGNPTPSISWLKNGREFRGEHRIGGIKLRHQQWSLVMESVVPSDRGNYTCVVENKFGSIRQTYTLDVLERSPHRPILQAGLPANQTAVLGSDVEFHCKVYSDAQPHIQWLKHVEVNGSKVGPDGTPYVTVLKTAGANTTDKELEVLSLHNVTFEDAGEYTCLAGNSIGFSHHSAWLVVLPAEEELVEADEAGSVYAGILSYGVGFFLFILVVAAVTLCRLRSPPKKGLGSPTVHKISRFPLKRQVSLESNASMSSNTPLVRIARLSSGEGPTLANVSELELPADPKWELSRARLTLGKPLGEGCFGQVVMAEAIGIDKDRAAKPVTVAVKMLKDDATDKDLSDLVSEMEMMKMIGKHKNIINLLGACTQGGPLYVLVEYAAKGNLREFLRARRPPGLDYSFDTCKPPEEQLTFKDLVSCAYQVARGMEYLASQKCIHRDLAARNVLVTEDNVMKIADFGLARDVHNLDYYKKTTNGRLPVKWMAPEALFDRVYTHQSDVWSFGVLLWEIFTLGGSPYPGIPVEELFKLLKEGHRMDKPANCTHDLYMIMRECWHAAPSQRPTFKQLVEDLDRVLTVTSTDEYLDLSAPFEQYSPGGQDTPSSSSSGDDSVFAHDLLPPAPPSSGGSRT
Summary of the method: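 After 5-10 min pre-incubation of FGFR3 with serially diluted compound in pH 7.5 HEPES/MgCl2/EGTA/DTT buffer, the reaction proceeded 1 hr at 25° C. Phosphorylated peptide was detected by FRET, and IC50 was fitted with a variable-slope sigmoid.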

FGFR2 = FGFR2 (Homo sapiens (Human), UniProt P21802); test: FGFR enzymatic assay (FRET peptide phosphorylation), FGFR2; settings: FGFR2 enzyme 0.01 nM, ATP 100 μM
Chain of FGFR2 (P21802 22-821): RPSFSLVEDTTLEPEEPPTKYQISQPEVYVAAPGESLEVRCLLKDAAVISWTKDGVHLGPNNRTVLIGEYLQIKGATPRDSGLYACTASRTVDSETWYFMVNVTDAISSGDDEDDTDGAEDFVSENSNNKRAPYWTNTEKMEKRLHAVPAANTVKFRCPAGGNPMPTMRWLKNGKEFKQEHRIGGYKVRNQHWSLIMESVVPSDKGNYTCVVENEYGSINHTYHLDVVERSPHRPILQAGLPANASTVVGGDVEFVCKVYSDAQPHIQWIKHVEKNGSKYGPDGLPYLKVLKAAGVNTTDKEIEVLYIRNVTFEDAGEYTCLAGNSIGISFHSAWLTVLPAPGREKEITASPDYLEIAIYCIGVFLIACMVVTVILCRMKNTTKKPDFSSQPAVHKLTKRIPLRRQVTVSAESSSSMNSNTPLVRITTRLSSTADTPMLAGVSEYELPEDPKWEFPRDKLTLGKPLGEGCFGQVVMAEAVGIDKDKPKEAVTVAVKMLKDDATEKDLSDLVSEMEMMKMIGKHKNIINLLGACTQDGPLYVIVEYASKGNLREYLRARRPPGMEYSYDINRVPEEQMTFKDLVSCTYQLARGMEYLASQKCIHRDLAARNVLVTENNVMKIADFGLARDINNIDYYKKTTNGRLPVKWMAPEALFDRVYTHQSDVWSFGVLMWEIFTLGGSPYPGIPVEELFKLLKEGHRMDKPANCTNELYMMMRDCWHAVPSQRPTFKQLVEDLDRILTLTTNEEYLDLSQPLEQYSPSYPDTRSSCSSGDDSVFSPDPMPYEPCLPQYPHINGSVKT
Summary of the method: as §1

[1] = FGFR1 enzyme 0.02 nM, ATP 210 μM

Measured: IC50

Chain of FGFR1 (P11362 22-822): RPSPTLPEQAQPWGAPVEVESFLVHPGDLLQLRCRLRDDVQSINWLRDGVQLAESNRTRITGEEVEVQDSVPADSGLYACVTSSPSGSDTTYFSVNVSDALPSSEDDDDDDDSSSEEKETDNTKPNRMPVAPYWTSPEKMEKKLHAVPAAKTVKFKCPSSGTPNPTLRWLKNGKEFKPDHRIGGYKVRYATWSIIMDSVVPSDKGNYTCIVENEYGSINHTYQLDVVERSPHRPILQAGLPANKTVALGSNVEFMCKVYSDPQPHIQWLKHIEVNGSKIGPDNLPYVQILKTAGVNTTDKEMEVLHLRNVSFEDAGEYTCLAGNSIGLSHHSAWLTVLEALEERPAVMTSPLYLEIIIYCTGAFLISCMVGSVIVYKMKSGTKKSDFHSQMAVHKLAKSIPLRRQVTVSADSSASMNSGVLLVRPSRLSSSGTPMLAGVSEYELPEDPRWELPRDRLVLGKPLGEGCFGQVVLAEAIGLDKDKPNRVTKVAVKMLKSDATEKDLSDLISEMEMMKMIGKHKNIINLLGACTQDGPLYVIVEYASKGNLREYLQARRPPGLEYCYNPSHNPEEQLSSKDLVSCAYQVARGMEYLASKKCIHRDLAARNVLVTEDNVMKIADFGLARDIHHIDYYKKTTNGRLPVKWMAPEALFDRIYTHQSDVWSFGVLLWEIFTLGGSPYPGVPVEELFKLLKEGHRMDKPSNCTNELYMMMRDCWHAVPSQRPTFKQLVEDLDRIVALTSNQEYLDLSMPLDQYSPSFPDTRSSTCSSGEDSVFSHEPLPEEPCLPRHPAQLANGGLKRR

CCN1CCN(CCc2cc3c4c(cnc3[nH]2)CN(c2c(F)c(OC)cc(OC)c2F)C(=O)N4c2cccc(F)c2)CC1 [Example 229, 3-(2,6-difluoro-3,5-dimethoxyphenyl)-1-(3-fluorophenyl)-8-[2-(4-ethylpiperazin-1-yl)ethyl]-1,3,4,7-tetrahydro-2H-pyrrolo[3′,2′:5,6]pyrido[4,3-d]pyrimidin-2-one]
< 100 nM: FGFR1; [1] | FGFR3 | FGFR2

COc1cc(OC)c(F)c(N2Cc3cnc4[nH]ccc4c3C3(CCOCC3)C2=O)c1F [Example 150, 7′-(2,6-difluoro-3,5-dimethoxyphenyl)-2,3,5,6,6′,7′-hexahydrospiro[pyran-4,9′-pyrrolo[2,3-c][2,7]naphthyridin]-8′(3′H)-one]
< 100 nM: FGFR1; [1] | FGFR3 | FGFR2

COc1cc(OC)c(F)c(N2Cc3cnc4[nH]c(CN5CCN(C)CC5)cc4c3N(C)C2=O)c1F [Example 129, 3-(2,6-difluoro-3,5-dimethoxyphenyl)-1-methyl-8-[(4-methylpiperazin-1-yl)methyl]-1,3,4,7-tetrahydro-2H-pyrrolo[3′,2′:5,6]pyrido[4,3-d]pyrimidin-2-one]
< 100 nM: FGFR1; [1] | FGFR3 | FGFR2

CCNC(=O)c1cccc(N2C(=O)N(c3c(F)c(OC)cc(OC)c3F)Cc3cnc4[nH]ncc4c32)c1F [Example 201, 3-[3-(2,6-difluoro-3,5-dimethoxyphenyl)-2-oxo-2,3,4,7-tetrahydro-1H-pyrazolo[4′,3′:5,6]pyrido[4,3-d]pyrimidin-1-yl]-N-ethyl-2-fluorobenzamide]
< 100 nM: FGFR1; [1] | FGFR3 | FGFR2

CCN1C(=O)N(c2c(F)c(OC)cc(OC)c2F)Cc2cnc3[nH]c(Cn4ccccc4=O)cc3c21 [Example 219, 3-(2,6-difluoro-3,5-dimethoxyphenyl)-1-ethyl-8-[(2-oxopyridin-1(2H)-yl)methyl]-1,3,4,7-tetrahydro-2H-pyrrolo[3′,2′:5,6]pyrido[4,3-d]pyrimidin-2-one]
< 100 nM: FGFR1; [1] | FGFR3 | FGFR2

COc1cc(OC)c(F)c(N2Cc3cnc4[nH]ncc4c3N([C@@H]3CCOC3)C2=O)c1F [Example 90, 3-(2,6-difluoro-3,5-dimethoxyphenyl)-1-[(3R)-tetrahydrofuran-3-yl]-1,3,4,7-tetrahydro-2H-pyrazolo[4′,3′:5,6]pyrido[4,3-d]pyrimidin-2-one]
< 100 nM: FGFR1; [1] | FGFR3 | FGFR2

CCN1C(=O)N(c2c(F)c(OC)cc(OC)c2F)Cc2cnc3[nH]c(CN4CCN(C)CC4)cc3c21 [Example 127, 3-(2,6-difluoro-3,5-dimethoxyphenyl)-1-ethyl-8-[(4-methylpiperazin-1-yl)methyl]-1,3,4,7-tetrahydro-2H-pyrrolo[3′,2′:5,6]pyrido[4,3-d]pyrimidin-2-one]
< 100 nM: FGFR1; [1] | FGFR3 | FGFR2

CCN1CCN(Cc2cc3c4c(cnc3[nH]2)CN(c2c(F)c(OC)cc(OC)c2F)C(=O)N4c2cnn(C)c2)CC1 [Example 205, 3-(2,6-difluoro-3,5-dimethoxyphenyl)-8-[(4-ethylpiperazin-1-yl)methyl]-1-(1-methyl-1H-pyrazol-4-yl)-1,3,4,7-tetrahydro-2H-pyrrolo[3′,2′:5,6]pyrido[4,3-d]pyrimidin-2-one]
< 100 nM: FGFR1; [1] | FGFR3 | FGFR2

COc1cc(OC)c(F)c(N2Cc3cnc4c(c3N(C)C2=O)CC(=O)N4)c1F [Example 37, 3-(2,6-Difluoro-3,5-dimethoxyphenyl)-1-methyl-3,4,7,9-tetrahydro-1H-pyrrolo[3′,2′:5,6]pyrido[4,3-d]pyrimidine-2,8-dione]
< 100 nM: FGFR1; [1] | FGFR3 | FGFR2

COc1cc(OC)c(Cl)c(N2Cc3cnc4c(c3N(C3CCC3)C2=O)CC(=O)N4)c1F [Example 106, 3-(2-chloro-6-fluoro-3,5-dimethoxyphenyl)-1-cyclobutyl-3,4,7,9-tetrahydro-1H-pyrrolo[3′,2′:5,6]pyrido[4,3-d]pyrimidine-2,8-dione]
< 100 nM: FGFR1; [1] | FGFR3 | FGFR2

COc1cc(OC)c(F)c(N2Cc3cnc4[nH]ncc4c3N(Cc3cocn3)C2=O)c1F [Example 161, 3-(2,6-Difluoro-3,5-dimethoxyphenyl)-1-(1,3-oxazol-4-ylmethyl)-1,3,4,7-tetrahydro-2H-pyrazolo[4′,3′:5,6]pyrido[4,3-d]pyrimidin-2-one]
< 100 nM: FGFR1; [1] | FGFR3 | FGFR2

COc1cc(OC)c(F)c(N2Cc3cnc4[nH]ncc4c3N(Cc3ccccn3)C2=O)c1F [Example 86, 3-(2,6-difluoro-3,5-dimethoxyphenyl)-1-(pyridin-2-ylmethyl)-1,3,4,7-tetrahydro-2H-pyrazolo[4′,3′:5,6]pyrido[4,3-d]pyrimidin-2-one]
< 100 nM: FGFR1; [1] | FGFR3 | FGFR2

COc1cc(OC)cc(N2Cc3cnc4[nH]c(C5=CCN(C)CC5)cc4c3N(C)C2=O)c1 [Example 17, 3-(3,5-Dimethoxyphenyl)-1-methyl-8-(1-methyl-1,2,3,6-tetrahydropyridin-4-yl)-1,3,4,7-tetrahydro-2H-pyrrolo[3′,2′:5,6]pyrido[4,3-d]pyrimidin-2-one]
< 100 nM: FGFR1 | FGFR3 | FGFR2

COc1cc(OC)c(F)c(N2Cc3cnc4[nH]c(C(=O)N(C)C)cc4c3N(C)C2=O)c1 [Example 34, 3-(2-Fluoro-3,5-dimethoxyphenyl)-N,N,1-trimethyl-2-oxo-2,3,4,7-tetrahydro-1H-pyrrolo[3′,2′:5,6]pyrido[4,3-d]pyrimidine-8-carboxamide]
< 100 nM: FGFR1; [1] | FGFR3 | FGFR2

COc1cc(OC)c(Cl)c(N2Cc3cnc4[nH]c(-c5ccnn5C)cc4c3N(C)C2=O)c1 [Example 15, 3-(2-Chloro-3,5-dimethoxyphenyl)-1-methyl-8-(1-methyl-1H-pyrazol-5-yl)-1,3,4,7-tetrahydro-2H-pyrrolo[3′,2′:5,6]pyrido[4,3-d]pyrimidin-2-one]
< 100 nM: FGFR1; [1] | FGFR3 | FGFR2

COc1cc(OC)c(F)c(N2Cc3cnc4[nH]c(C(=O)NC5CC5)cc4c3N(C)C2=O)c1 [Example 27, N-Cyclopropyl-3-(2-fluoro-3,5-dimethoxyphenyl)-1-methyl-2-oxo-2,3,4,7-tetrahydro-1H-pyrrolo[3′,2′:5,6]pyrido[4,3-d]pyrimidine-8-carboxamide]
< 100 nM: FGFR1; [1] | FGFR3 | FGFR2

COc1cc(OC)cc(N2Cc3cnc4[nH]c(C(=O)N5CCN(C)CC5)cc4c3N(C)C2=O)c1 [Example 22, 3-(3,5-Dimethoxyphenyl)-1-methyl-8-[(4-methylpiperazin-1-yl)carbonyl]-1,3,4,7-tetrahydro-2H-pyrrolo[3′,2′:5,6]pyrido[4,3-d]pyrimidin-2-one]
< 100 nM: FGFR1; [1] | FGFR3 | FGFR2

COc1cc(OC)c(F)c(N2Cc3cnc4[nH]ncc4c3N(c3cccnc3)C2=O)c1F [Example 94, 3-(2,6-difluoro-3,5-dimethoxyphenyl)-1-pyridin-3-yl-1,3,4,7-tetrahydro-2H-pyrazolo[4′,3′:5,6]pyrido[4,3-d]pyrimidin-2-one]
< 100 nM: FGFR1; [1] | FGFR3 | FGFR2

COc1cc(OC)c(F)c(N2Cc3cnc4[nH]c(C(=O)N5CCC(F)(F)CC5)cc4c3N(C)C2=O)c1F [Example 42, 3-(2,6-Difluoro-3,5-dimethoxyphenyl)-8-[(4,4-difluoropiperidin-1-yl)carbonyl]-1-methyl-1,3,4,7-tetrahydro-2H-pyrrolo[3′,2′:5,6]pyrido[4,3-d]pyrimidin-2-one]
< 100 nM: FGFR1; [1] | FGFR3 | FGFR2

COc1cc(OC)c(F)c(N2Cc3cnc4[nH]cc(CC#N)c4c3N(C)C2=O)c1F [Example 105, [3-(2,6-difluoro-3,5-dimethoxyphenyl)-1-methyl-2-oxo-2,3,4,7-tetrahydro-1H-pyrrolo[3′,2′:5,6]pyrido[4,3-d]pyrimidin-9-yl]acetonitrile]
< 100 nM: FGFR1; [1] | FGFR3 | FGFR2

COc1cc(OC)c(F)c(N2Cc3cnc4[nH]c(CCN5CCC5)cc4c3N(C)C2=O)c1F [Example 115, 8-(2-azetidin-1-ylethyl)-3-(2,6-difluoro-3,5-dimethoxyphenyl)-1-methyl-1,3,4,7-tetrahydro-2H-pyrrolo[3′,2′:5,6]pyrido[4,3-d]pyrimidin-2-one]
< 100 nM: FGFR1; [1] | FGFR3 | FGFR2

COc1cc(OC)c(F)c(N2Cc3cnc4[nH]c(CN5CCN(C)CC5)cc4c3N(c3ccncc3)C2=O)c1F [Example 195, 3-(2,6-difluoro-3,5-dimethoxyphenyl)-8-[(4-methylpiperazin-1-yl)methyl]-1-pyridin-4-yl-1,3,4,7-tetrahydro-2H-pyrrolo[3′,2′:5,6]pyrido[4,3-d]pyrimidin-2-one]
< 100 nM: FGFR1; [1] | FGFR3 | FGFR2

COc1cc(OC)c(F)c(N2Cc3cnc4[nH]c(CCN5CCCC5)cc4c3N(C)C2=O)c1F [Example 116, 3-(2,6-difluoro-3,5-dimethoxyphenyl)-1-methyl-8-(2-pyrrolidin-1-ylethyl)-1,3,4,7-tetrahydro-2H-pyrrolo[3′,2′:5,6]pyrido[4,3-d]pyrimidin-2-one]
< 100 nM: FGFR1; [1] | FGFR3 | FGFR2

COc1cc(OC)c(F)c(N2Cc3cnc4[nH]ccc4c3N(c3cccc(F)c3F)C2=O)c1F [Example 76, 3-(2,6-difluoro-3,5-dimethoxyphenyl)-1-(2,3-difluorophenyl)-1,3,4,7-tetrahydro-2H-pyrrolo[3′,2′:5,6]pyrido[4,3-d]pyrimidin-2-one]
< 100 nM: FGFR1; [1] | FGFR3 | FGFR2
